Data on twelve molecules can be found in paper PMC12165799, “Antimicrobial peptide developed with machine learning sequence optimization targets drug resistant Staphylococcus aureus in mice” (The Journal of Clinical Investigation, 2025).

The test system of data set [1] is S. aureus MW2 (MRSA) exponential and persister cells. Nature of the data set: S. aureus persister cell and time-kill assays (MW2). Type of data set: cell-based, Staphylococcus aureus. As to conditions: within 120 minutes; ciprofloxacin 10 μg/mL, bithionol 10 μg/mL. On the procedure: (§1) 305 Minimal inhibitory concentration (MIC) assay
(§2) We made serial dilutions of 10×
(§3) We determined the MIC using OD600
(§4) Accordingly, we added 150 mM NaCl,
(§5) 319 established protocol (5).
(§6) 323 aureus VRS1) in PBS. To assess the killing kinetics of CIT-8 in persister cells, we added 1 ml of
(§7) 324 cell suspension to the wells of a 2-ml deep-well assay block (Cat no. 3960, Corning, NY, USA)
(§8) We also included ciprofloxacin (at 10 μg/ml) for S.
(§9) 326 aureus MW2 and linezolid (100 μg/ml) for S. aureus VRS1 as antibiotic controls. Additionally,
(§10) 327 we included bithionol (at 10 μg/ml) as a positive control, known for its ability to kill stationary
(§11) 328 phase persister cells (6). We incubated the plates at 37°C, with shaking at 225 rpm. At specific
(§12) 329 times (0, 15, 30, 60, and 120 min), we collected 10 μl samples, diluted them serially, and then
(§13) 330 plated them on tryptic soy agar (TSA) (BD Difco, NJ, USA) plates. We incubated the TSA plates
(§14) 331 for 18 hours at 37°C for colony counting. We performed these experiments in duplicate. As a
(§15) 332 comparison, we prepared the exponential cells of S. aureus MW2 and VRS1 in PBS and analyzed
(§16) 333 their killing kinetics in the same manner as described for persister cells.

Data set [2] has as its system S. aureus VRS1 (VRSA) exponential and persister cells. The experiment in a line: S. aureus persister cell and time-kill assays (VRS1). Type of data set: cell-based, Staphylococcus aureus. As to conditions: within 120 minutes; bithionol 10 μg/mL, linezolid 100 μg/mL. As for the experimental part:
as §1, §2, §3, §4, §5, §6, §7, §8, §9, §10, §11, §12, §13, §14, §15, §16

Another data set relates to HepG2 cells. The experiment in a line: Mammalian cell cytotoxicity assay.
The subject of data set [3] is S. aureus MW2 skin infection. Nature of the data set: Skin-abraded murine infection, prophylactic (acute) model, bacterial load. The conditions noted are these: for Bacterial load from skin specimens, prophylactic model: 2% ointment 10 minutes after infection. Type of data set: in vivo, mice. On the procedure: (§17) 599 In vivo murine skin infection and treatment
(§18) 600 We used a topical skin-abraded murine infection model with minor modifications to test
(§19) 601 the in vivo efficacy of the CIT-8 peptide (25). We performed all mouse studies following the
(§20) 602 protocol approved by the Institutional Animal Care and Use Committee. In brief, we anesthetized
(§21) 603 female C57BL/6 mice (6 weeks) (Jackson Laboratory, Bar Harbor, ME, USA) with ketamine-
(§22) 604 xylazine (90 mg/kg ketamine and 10 mg/kg xylazine) via intraperitoneal injection. We shaved the
(§23) 605 dorsal side of the mice in the middle of the back (area=2 cm2). To disrupt skin integrity, we tape-
(§24) 606 stripped with Tensoplast® seven times in succession, replacing the tape each time, resulting in
(§25) 607 visibly damaged skin. We infected the damaged skin area with 1 × 10^7 CFU of S. aureus MW2
(§26) 608 (exponential phase bacteria in PBS) with an inoculum of 50 µl using a pipette tip. Ten minutes
(§27) 609 (prophylactic model) and 24 h (established model) after bacterial inoculation, we applied 30 mg
(§28) 610 of 1 and 2% (w/w) CIT-8 ointment in a white petroleum jelly base (Cat no. 19-090-843, Fisher
(§29) 611 Scientific, MA, USA) to the skin. We also included animal groups treated with only petroleum
(§30) 612 jelly or with 2% commercial mupirocin ointment as negative and positive controls, respectively.
(§31) 613 For pain management, we used the analgesic buprenorphine SR (0.05 mg/kg).
(§32) 614 After 24 h of treatment, we euthanized the animals, separated the skin from the underlying
(§33) 615 fascia and muscle tissue, and excised about 2 cm2 of skin from the infected area. We ground the
(§34) 616 skin in 1ml of PBS buffer (Gibco, MD, USA). We serially diluted 100 µl of the solution in PBS
(§35) 617 and plated it on Remel™ TSA plates (Fisher, MA, USA) to estimate viable colony counts after 18
(§36) 618 h of incubation at 37 °C. Further, we added 10 µl of EDTA-Free, protease inhibitor cocktail Set III
(§37) 619 (Millipore Sigma, MA, USA) to 500 µl of the ground skin PBS solution for cytokine estimation.
(§38) 620 The Cytokine Core, LLC (Indianapolis, IN, USA) performed the cytokine concentration analysis

Data set [4] has as its system S. aureus MW2 skin infection. Nature of the data set: Skin-abraded murine infection, established infection model, bacterial load. The format is in vivo, mice. Set-up: Bacterial load from skin specimens, established infection model / bacterial load in skin, Sup. Fig. 12: unit not given here. The conditions noted are these: for Bacterial load from skin specimens, established infection model: 2% ointment 24 hours after infection; for bacterial load in skin, Sup. Fig. 12: 2%, mice. As for the experimental part: as §17, §18, §19, §20, §21, §22, §23, §24, §25, §26, §27, §28, §29, §30, §31, §32, §33, §34, §35, §36, §37, §38

The subject of a further data set is S. aureus MW2. The experiment in a line: Minimal inhibitory concentration (MIC) assay, broth microdilution. The format is cell-based, Staphylococcus aureus. As to conditions: S. aureus MW2; broth microdilution, TSB, 1 × 10^6 CFU/ml, 37°C 18 h, OD600, duplicate. On the procedure:
300 Synthesis of peptides
302 Piscataway, NJ, USA).
as §1, §2, §3, §4, §5

The nature of data set [5]: HPLC retention time on C18 reverse-phase column. The format is physicochemical. The text has this:
Table 1 Physical parameters and minimal inhibitory concentrations of citropin 1.1-derived peptides against S. aureus MW2 | column: rT^D (min)

Description for HepG2 cells: 410 the HepG2 cells at 37°C in 5% CO2 in Dulbecco’s Modified Eagle Medium (DMEM) (Gibco, MA,
We harvested and resuspended cells in fresh DMEM

Regarding `O=C(O)c1cn(C2CC2)c2cc(N3CCNCC3)c(F)cc2c1=O` [Ciprofloxacin], the “Reduction of MRSA persister cells” value in data set [1] was “did not have any effect”.

For `Oc1c(Cl)cc(Cl)cc1Sc1cc(Cl)cc(Cl)c1O` [bithionol], the “Reduction of MRSA persister cells” value in data set [1] is recorded as 1.5 logs. Besides, in data set [2], the “Reduction of VRSA persister cells” value is recorded as 1.5 logs and the “Reduction of exponentially growing VRSA” value is listed as 1.0 logs.

Turning to `CNC(C)C1CCC(N)C(OC2C(N)CC(N)C(OC3OCC(C)(O)C(NC)C3O)C2O)O1` (centres unmarked) [gentamicin, reference compound], the “HepG2 cell viability, Sup. Fig. 4B” value is given as 100.314 in the data set with HepG2 cells (4 μg/ml, replicate 1); 105.383 in the data set on HepG2 cells (4 μg/ml, replicate 2); 105.587 with HepG2 cells (4 μg/ml, replicate 3); 101.846 in the data set with HepG2 cells (8 μg/ml, replicate 1); 103.015 in the data set on HepG2 cells (8 μg/ml, replicate 2); 101.846 in the data set with HepG2 cells (8 μg/ml, replicate 3). Besides, the “HepG2 cell viability, Sup. Fig. 4B” value came out at 102.511 with HepG2 cells (16 μg/ml, replicate 1); 103.671 in the data set on HepG2 cells (16 μg/ml, replicate 2); 100.107 in the data set with HepG2 cells (16 μg/ml, replicate 3); 102.999 with HepG2 cells (32 μg/ml, replicate 1); 106.118 in the data set on HepG2 cells (32 μg/ml, replicate 2); 103.265 in the data set with HepG2 cells (32 μg/ml, replicate 3). Besides, the “HepG2 cell viability, Sup. Fig. 4B” value is 103.75 in the data set with HepG2 cells (64 μg/ml, replicate 1); 104.801 in the data set with HepG2 cells (64 μg/ml, replicate 2); 97.7499 in the data set on HepG2 cells (64 μg/ml, replicate 3); 104.41 in the data set on HepG2 cells (128 μg/ml, replicate 1); 112.88 in the data set with HepG2 cells (128 μg/ml, replicate 2); 101.795 in the data set on HepG2 cells (128 μg/ml, replicate 3).

As to `CC(=O)NC[C@H]1CN(c2ccc(N3CCOCC3)c(F)c2)C(=O)O1` [linezolid], in data set [2], the “Reduction of VRSA persister cells” value is “no impact” and the “Reduction of exponentially growing VRSA” value stood at 0.7 logs.

Take `C/C(=C\C(=O)OCCCCCCCCC(=O)O)C[C@@H]1OC[C@H](C[C@@H]2O[C@H]2[C@@H](C)[C@H](C)O)[C@@H](O)[C@H]1O` [mupirocin, reference compound]: the “Bacterial load from skin specimens, prophylactic model” value came to 500000 in data set [3] (animal 1); 380952 in data set [3] (animal 2); 320000 in data set [3] (animal 3); 47058.8 in data set [3] (animal 4); 200000 in data set [3] (animal 5); 34782.6 in data set [3] (animal 6). The “Bacterial load from skin specimens, prophylactic model” value is given as 176000 in data set [3] (animal 7); 533333 in data set [3] (animal 8); 769231 in data set [3] (animal 9); 1538462 in data set [3] (animal 10); 289655 in data set [3] (animal 11); 252632 in data set [3] (animal 12). The “Reduction of S. aureus MW2 burden vs vehicle, prophylactic model” value in data set [3] (2% w/w ointment, single treatment 10 minutes after inoculation, n = 12) stood at 2.8 log. In addition, the “Bacterial load from skin specimens, established infection model” value is given as 5546493 in data set [4] (animal 1); 5663717 in data set [4] (animal 2); 38314176 in data set [4] (animal 3); 4793289 in data set [4] (animal 4); 8342990 in data set [4] (animal 5); 7083333 in data set [4] (animal 6). The “Bacterial load from skin specimens, established infection model” value was determined as 21857924 in data set [4] (animal 7) and 14962594 in data set [4] (animal 8). Moreover, in data set [4] (2% w/w ointment, single dose 24 hours after inoculation, n = 8), the “Reduction of S. aureus MW2 vs vehicle, established infection model” value is 2.4 log. Moreover, the “bacterial load in skin, Sup. Fig. 12” value in data set [4] (animal 1) is on record as 84745.8; in data set [4] (animal 2) it was 264317; in data set [4] (animal 3), 520833; in data set [4] (animal 4) it was 633914; in data set [4] (animal 5), 864198; in data set [4] (animal 6) it was 285714. In addition, the “bacterial load in skin, Sup. Fig. 12” value in data set [4] (animal 7) is 1465201; in data set [4] (animal 8), 754717.

Regarding H-GLFDVIKKLLSVI-NH2 [CIT-5], in the data set on S. aureus MW2, the “MIC SA” value was greater than 32 µg/mL. Besides, the “rT (HPLC retention time)” value in data set [5] came to 22.300 min.

Consider H-GLFDVIKKVASVI-NH2 [CIT-1], for which the “MIC SA” value with S. aureus MW2 is greater than 32 µg/mL. The “rT (HPLC retention time)” value in data set [5] stood at 17.570 min.

On to H-GLFKVIKKLLSVI-NH2 [CIT-7], for which the “MIC SA” value in the data set on S. aureus MW2 came to 4 µg/mL. The “rT (HPLC retention time)” value in data set [5] is on record as 19.956 min.

Turning to H-GLFKVIKKVAKVI-NH2 [CIT-4], the “MIC SA” value in the data set with S. aureus MW2 is greater than 32 µg/mL. The “rT (HPLC retention time)” value in data set [5] is 17.776 min.

As for H-GLFKVIKKVASVI-NH2 [CIT-3], the “MIC SA” value against S. aureus MW2 was greater than 32 µg/mL. Moreover, the “rT (HPLC retention time)” value in data set [5] was 17.400 min.

Consider H-GLFSVIKKLLSVI-NH2 [CIT-6], for which, in the data set with S. aureus MW2, the “MIC SA” value was 2 µg/mL. In data set [5], the “rT (HPLC retention time)” value is reported as 23.302 min.

H-GLFSVIKKVASVI-NH2 [CIT-2]: in the data set with S. aureus MW2, the “MIC SA” value is greater than 32 µg/mL. In addition, the “rT (HPLC retention time)” value in data set [5] is listed as 15.711 min.
